{"source": "patent US20220024964A1", "about": "“Cyclic Di-Nucleotide Compounds as STING Agonists” (Merck Sharp & Dohme Corp., priority 2018, published 2022)", "key": {"full-length HAQ STING": {"biological_target": "T1, full-length HAQ STING (Homo sapiens, UniProt Q86WV6, G230A/H232R/R293Q/R71H)", "T1 construct": "Full-Length HAQ STING [STING(1-379)R71H, G230A, H232R,; made in house; host or cells: Trichoplusia ni (Hi-Five) insect cells via baculovirus (virus made in Sf21); used as a membrane preparation", "T1 sequence (Q86WV6 with tags, fused parts or gaps R71H/G230A/H232R/R293Q)": "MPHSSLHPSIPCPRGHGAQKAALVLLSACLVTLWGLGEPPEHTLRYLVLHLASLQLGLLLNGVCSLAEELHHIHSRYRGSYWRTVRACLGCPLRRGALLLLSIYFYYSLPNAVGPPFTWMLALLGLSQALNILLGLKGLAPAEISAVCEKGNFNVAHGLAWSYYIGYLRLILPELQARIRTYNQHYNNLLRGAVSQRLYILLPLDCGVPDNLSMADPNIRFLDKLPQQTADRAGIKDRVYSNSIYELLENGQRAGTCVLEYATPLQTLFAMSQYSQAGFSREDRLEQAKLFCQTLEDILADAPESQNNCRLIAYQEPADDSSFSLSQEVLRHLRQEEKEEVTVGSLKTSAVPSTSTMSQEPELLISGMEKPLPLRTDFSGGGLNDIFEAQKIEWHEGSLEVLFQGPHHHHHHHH", "experiment": "3H-cGAMP filtration binding assay (HAQ STING)", "settings": "competition with tritiated cGAMP ligand, HAQ STING membrane", "from_the_text": "The ability of compounds to bind STING is quantified by the ability to compete with tritiated cGAMP ligand for human STING receptor membrane using a radioactive filter-binding assay. The binding assay employs STING receptor obtained from Hi-Five cell membranes overexpressing full-length HAQ STING prepared in-house and tritiated cGAMP ligand also purified in-house.\n(§1) The ability of compounds to bind STING is quantified by their ability to compete with tritiated cGAMP ligand for human STING receptor membrane using a radioactive filter-binding assay. The binding assay employs STING receptor obtained from Trichoplusia ni cell membranes (T. ni; Expression Systems, cat #94-002F, www.expressionsystems.com) overexpressing full-length HAQ STING and tritiated cGAMP ligand.\nThe basic HAQ STING filtration assay protocol is as follows: The compounds were serially titrated by the Hamilton STARPlus CORE in a 96-well plate (Greiner, #651201) using a 1:3 ten-point dose response format. […] Tritium levels for each reaction well were then measured using a PerkinElmer TopCount plate reader.\n(§2) After normalization to controls, the percent activity for each compound concentration was calculated by measuring the amount of remaining radioactivity. […]"}, "full-length WT STING": {"biological_target": "T2, full-length WT STING (Homo sapiens, UniProt Q86WV6, H232R)", "T2 construct": "Full-Length STING WT [STING(1-379)H232R-gg-AviTag-gs-; made in house; host or cells: Trichoplusia ni insect cells via baculovirus (virus made in Sf21); used as a membrane preparation", "T2 sequence (Q86WV6 with tags, fused parts or gaps H232R)": "as the sequence (Q86WV6 with tags, fused parts or gaps R71H/G230A/H232R/R293Q) above, with H71R, A230G, Q293R counted along it", "experiment": "3H-cGAMP filtration binding assay (WT STING)", "settings": "competition with tritiated cGAMP ligand, WT STING membrane", "experimental": "as §1, with “WT” for “HAQ”\nThe basic WT STING filtration assay protocol is as follows: 16 nM of [^3H] c-GAMP ligand was prepared by diluting into assay buffer, and 50 uL of this working stock was manually added to each well of the assay plate. After ligand addition, 2 uL of either titrated test compound, DMSO control (Sigma #276855), or cold cGAMP control was added to the appropriate wells using a BIOMEK FX. The serially titrated compound was prepared on a Hamilton STARPlus CORE in a 96-well plate (Greiner, #651201) using a 1:3 ten-point dose response format. […] Tritium levels for each reaction well were then measured using a PerkinElmer TopCount plate reader.\nas §2"}, "THP1 cells": {"tested_on": "THP1 cells", "experiment": "IFN-β secretion in THP1 cell culture (5 h)", "assay_type": "cell-based, human", "settings": "30 μM compound, 30 uM cGAMP = 100%", "experimental": "The ability of compounds to stimulate the secretion of interferon-beta from THP1 cells was measured using a human IFN-β AlphaLISA kit (Perkin Elmer, Cat. No. AL265F). The basic protocol is as follows:\nA Labcyte Echo 550 acoustic dispenser was used to transfer 120 nL of compound dissolved in DMSO into the wells of an empty, sterile 384-well microplate, (Corning, Cat. No. 3712). THP1 cells (American Type Culture Collection, Cat. No. TIB202) previously frozen in Recovery Medium (Life Technologies, Cat. No. 12648-010) were thawed and immediately diluted 10-fold into 37° C. assay medium (RPMI 1640+L-Glutamine & phenol red, Life Technologies, Cat. No. 11875-085; 0.5% heat inactivated fetal bovine serum, Sigma Aldrich, Cat. No. F4135; 1 mM Sodium Pyruvate, Life Technologies, Cat. No. 11360-070; lx non-essential amino acids; Life Technologies, Cat. No. 11140-050). The cell viability and count was ascertained using a Beckman Coulter V-Cell XR cell counter. The cell suspension was centrifuged at 200×g for 5 min at RT. […]\nThe assay was started by dispensing 40 μL of the previously prepared cell suspension into the wells of the plate containing compounds. […] The plate was then read on a Perkin Elmer Envision (λex=680 nm, λcm=570 nm). The percent effect of the AlphaLISA signal at each compound concentration was calculated based on 30 uM cGAMP positive controls and 0.3% DMSO negative controls. […]"}}, "data": [{"compound": "Nc1nc2c(ncn2[C@@H]2O[C@@H]3COP(=O)(S)O[C@@H]4C[C@H](n5cnc6c(N)ncnc65)O[C@@H]4COP(=O)(S)O[C@H]2C3)c(=O)[nH]1", "note": "(stereo partly drawn) [Example 1, 2-amino-9-[(5S,7R,8S,12aR,14R,15aR)-14-(6-amino-9H-purin-9-yl)-2,10-dioxido-2,10-disulfanyloctahydro-12H-5,8-methanofuro[3,2-1][1,3,6,9,11,2,10]pentaoxadiphosphacyclotetradecin-7-yl]-1,9-dihydro-6H-purin-6-one]", "values": [{"measurement": "EC50", "setting": "full-length HAQ STING", "result": 49.1, "unit": "nM"}, {"measurement": "EC50", "setting": "full-length WT STING", "result": 118, "unit": "nM"}, {"measurement": "% Effect at 30 μM relative to 2′3′-cGAMP", "setting": "THP1 cells", "result": 107, "unit": "%"}]}]}
